Data set [1] relates to A. baumannii 7789. The class given is cell-based, Acinetobacter baumannii. How it is done:
(§1) The minimum inhibitory concentration (MIC) of colistin (as sulphate salt) and polymyxin B and their conjugates was determined using the broth microdilution method in MH broth in accordance with standard guidelines. Test organisms were suspended in MH broth (100 µL, 5 × 10^5 colony forming units (CFU)/mL) and incubated in 96-well microtitre plates in serial two-fold dilutions of the test compounds. […] Results were expressed as mode (n = 3). […] Selective activities of the polymyxins and OligoG–polymyxin conjugates were calculated as follows:Selectivity index (SI) = IC50 (μg/mL)/MIC (μg/mL).
(§2) In addition, alginate oligomer–colistin conjugates (3 mg/mL) were incubated in PBS at pH 7 containing bacterial alginate lyase (1 and 10 U/mL) at 37 °C for 24 h, before preparing microtitre plates as described above.
(§3) To study the antimicrobial efficacy of test compounds under more clinically relevant conditions, the MIC protocol was performed using AS medium instead of MH broth. The plates were incubated with resazurin as described above.

A further data set relates to P. aeruginosa NH57388A. As to the kind of experiment: MIC, broth microdilution. It counts as cell-based, Pseudomonas aeruginosa. The protocol: as §1, §3
In general terms: In broth dilution the organism is exposed to a series of concentrations in liquid medium.

In data set [2] the test system is P. aeruginosa R22. The class given is cell-based, Pseudomonas aeruginosa. Particulars: resazurin read-out. How it is done: as §1
(§4) To account for turbidity caused by mucin, resazurin dye solution (30 µL, 0.01% w/v in dH2O) was added to each well and incubated for a further 3 h at 37 °C. Colour changes were observed and recorded.
On the technique in general: Alamar Blue is a resazurin reagent that responds to reducing activity.

Data set [3] is described as follows: Two-compartment static dialysis bag model, diffusion. The class given is physicochemical. Conditions: IC 10 mg/mL colistin base in PBS (5 mL), OC PBS (15 mL), 37 °C, 70 rpm, BCA assay, n = 3. How it is done:
A two-compartment static dialysis bag model (adapted from Azzopardi et al.) was used to study the PK–PD profile of OligoG–colistin conjugates. First, the ability of the dialysis membrane to control diffusion of test compounds was assessed. […] The aseptically sealed beaker was incubated (37 °C, 70 rpm) for 48 h. Samples were collected at various time points from each compartment and stored at −20 °C prior to analysis of colistin content by BCA assay.

The next data set concerns E. coli IR57. It counts as cell-based, Escherichia coli. The protocol: as §1, §4, §3
The subject of the next data set is K. pneumoniae IR25. It counts as cell-based, Klebsiella pneumoniae. Conditions: resazurin read-out. How it is done: as §1, §4
For data set [4], the system named is P. aeruginosa MDR 301. As to the kind of experiment: Bacterial growth curves (48 h). It counts as cell-based, Pseudomonas aeruginosa. Conditions: absorbance 600 nm hourly for 48 h, n = 3. An excerpt: Results were expressed as mean values (n = 3).
Data set [5] concerns P. aeruginosa MDR 301. The class given is cell-based, Pseudomonas aeruginosa. The protocol: as §1, §2, §3
In a further data set the test system is E. coli 5702. As to the kind of experiment: MIC, broth microdilution. The class given is cell-based, Escherichia coli. The protocol:
as §1, §3

Data set [6] deals with A. baumannii 7789. As to the kind of experiment: Time-to-kill (TTK) in PK–PD model. It counts as cell-based, Acinetobacter baumannii. Conditions: 0.25 µg/mL colistin base (colistin sulphate at MIC; OligoG–E–colistin at 2 × MIC), n = 3. How it is done:
A modified experimental set-up was used to investigate the concentration- and time-dependent antimicrobial activity of test compounds using a TTK assay (48 h). […] The OC contained MH broth inoculated with A. baumannii 7789 (5 × 10^5 CFU/mL). Samples were collected from the OC (0, 2, 4, 6, 24 and 48 h) and colony counts (CFU/mL) determined using drop counts. Treatments were considered bactericidal if the reduction in viable bacterial counts was ≥3 log10 CFU/mL (equivalent to 99.9% of the initial inoculum) and bacteriostatic if the decrease was <3 log10 CFU/mL [33, 34]. Growth (no test compounds) and sterility (no bacteria) controls were also performed.

For data set [7] the following is noted: cited from earlier work. The protocol: In a clinical setting, binding of colistin to sputum biomolecules (e.g., mucin) in the airways could negatively impact antibiotic effectiveness and availability. […] A four-fold increase in the MIC of colistin was also reported when the assay was conducted in AS medium instead of MH broth, thought to be caused by bacterial growth disruption, structural modifications of lipopolysaccharides or direct colistin–mucin interactions. Alt ...

For data set [8], the system named is P. aeruginosa R22. As to the kind of experiment: Biofilm formation assay (CLSM, COMSTAT). It counts as cell-based, Pseudomonas aeruginosa. Particulars: 24 h. The protocol:
To analyse the effect of test compounds on biofilm formation, solutions of test compounds in MH broth were inoculated (1:10) with P. aeruginosa R22 (standardised to 10^7 CFU/mL) in a Greiner glass-bottomed optical 96-well plate. The plate was then wrapped in parafilm and incubated (37 °C, 20 rpm) for 24 h. The supernatant was carefully removed and replaced with 10% v/v LIVE/DEAD stain in PBS prior to imaging. CLSM of Syto 9 (λex/λem maximum, 480/500 nm) and propidium iodide (λex/λem maximum, 490/635 nm) was performed using a Leica SP5 confocal microscope with ×63 lens (under oil) and a step size of 0.79 µm. Z-stack CLSM images were analysed using COMSTAT image analysis software and results were expressed as mean ± SEM (n = 15).

Another data set relates to E. coli AIM-1. As to the kind of experiment: MIC, broth microdilution. The class given is cell-based, Escherichia coli. How it is done:
as §1, §2

For another data set, the system named is A. baumannii MDR ACB. The class given is cell-based, Acinetobacter baumannii. Particulars: resazurin read-out. The protocol: as §1, §4
For data set [9] the following is noted: in vivo; cited from earlier work.
Where [10] appears, read: AS (artificial sputum) medium, resazurin read-out.
[11] abbreviates: MH broth (Table S7 comparison with AS medium).
The mark [12] stands for this setting: alginate lyase in MH broth, 0 U/mL.
Setting [13] is: alginate lyase in MH broth, 1 U/mL.
The mark [14] stands for this setting: alginate lyase in MH broth, 10 U/mL.
Where [15] appears, read: pre-incubation with alginate lyase 0 U/mL (3 mg/mL in PBS pH 7, 37 °C, 24 h), then MIC in MH broth.
Where [16] appears, read: pre-incubation with alginate lyase 1 U/mL (3 mg/mL in PBS pH 7, 37 °C, 24 h), then MIC in MH broth.
[17] abbreviates: pre-incubation with alginate lyase 10 U/mL (3 mg/mL in PBS pH 7, 37 °C, 24 h), then MIC in MH broth.
Where [18] appears, read: MH broth + porcine stomach (type II) mucin 0.2% w/v.
The mark [19] stands for this setting: MH broth + porcine stomach (type II) mucin 2% w/v.

Like-named read-outs stand apart in the source and are kept apart here.

Here are results for two substances from article PMC7696216, “Bi-Functional Alginate Oligosaccharide–Polymyxin Conjugates for Improved Treatment of Multidrug-Resistant Gram-Negative Bacterial Infections” (Pharmaceutics, 2020).

For colistin sulphate, the MIC in the data set on A. baumannii 7789 [1] (setting [10]) is listed as 1 μg/mL Drug Base; in the data set with A. baumannii 7789 [1] (setting [11]) it was 0.25 μg/mL Drug Base; against A. baumannii 7789 [1] (setting [12]), 0.002 μg/mL Drug Base; with A. baumannii 7789 [1] (setting [13]), 0.004 μg/mL Drug Base; in the data set on A. baumannii 7789 [1] (setting [14]), 0.004 μg/mL Drug Base; in the data set on A. baumannii 7789 [1] (setting [15]), 0.002 μg/mL Drug Base. The MIC was found to be 0.002 μg/mL Drug Base against A. baumannii 7789 [1] (setting [16]); 0.002 μg/mL Drug Base against A. baumannii 7789 [1] (setting [17]); 1 μg/mL Drug Base with P. aeruginosa NH57388A (setting [10]); 0.25 μg/mL Drug Base against P. aeruginosa NH57388A (setting [11]); 2 μg/mL Drug Base with P. aeruginosa R22 [2] (setting [18]); 16 μg/mL Drug Base in the data set with P. aeruginosa R22 [2] (setting [19]). Besides, the MIC in the data set with P. aeruginosa R22 [2] (MH broth, mucin 0%) worked out at 0.5 μg/mL Drug Base; in the data set with E. coli IR57 (setting [10]), 0.125 μg/mL Drug Base; with E. coli IR57 (setting [11]), 0.125 μg/mL Drug Base; in the data set with E. coli IR57 (MH broth + porcine stomach (type II) mucin 0.2% w/v, resazurin read-out), 1 μg/mL Drug Base; in the data set on E. coli IR57 (MH broth + porcine stomach (type II) mucin 2% w/v, resazurin read-out), 2 μg/mL Drug Base; in the data set with E. coli IR57 (MH broth, mucin 0%, resazurin read-out), 0.125 μg/mL Drug Base. Further, the MIC is reported as 1 μg/mL Drug Base with K. pneumoniae IR25 (setting [18]); 64 μg/mL Drug Base in the data set on K. pneumoniae IR25 (setting [19]); 2 μg/mL Drug Base in the data set on P. aeruginosa MDR 301 [5] (setting [10]); 0.5 μg/mL Drug Base in the data set on P. aeruginosa MDR 301 [5] (setting [11]); 0.063 μg/mL Drug Base in the data set on P. aeruginosa MDR 301 [5] (setting [12]); 0.063 μg/mL Drug Base against P. aeruginosa MDR 301 [5] (setting [13]). Moreover, the MIC against P. aeruginosa MDR 301 [5] (setting [14]) was found to be 0.25 μg/mL Drug Base; against P. aeruginosa MDR 301 [5] (setting [15]) it was 0.063 μg/mL Drug Base; in the data set on P. aeruginosa MDR 301 [5] (setting [16]) it was 0.063 μg/mL Drug Base; in the data set on P. aeruginosa MDR 301 [5] (setting [17]), 0.125 μg/mL Drug Base; in the data set on E. coli 5702 (setting [10]), 0.125 μg/mL Drug Base; in the data set with E. coli 5702 (setting [11]) it was 0.031 μg/mL Drug Base. In addition, the MIC in the data set on E. coli AIM-1 (setting [12]) was 0.00006 μg/mL Drug Base; in the data set on E. coli AIM-1 (setting [13]) it was 0.00006 μg/mL Drug Base; in the data set with E. coli AIM-1 (setting [14]), 0.0002 μg/mL Drug Base; against E. coli AIM-1 (broth microdilution, MH broth, 5 × 10^5 CFU/mL, 16–20 h, mode (n = 3)), under 0.008 μg/mL Drug Base; in the data set on E. coli AIM-1 (setting [15]), 0.00006 μg/mL Drug Base; in the data set with E. coli AIM-1 (setting [16]), 0.001 μg/mL Drug Base. Also, the MIC with E. coli AIM-1 (setting [17]) was 0.0002 μg/mL Drug Base; in the data set with A. baumannii MDR ACB (setting [18]), 1 μg/mL Drug Base; in the data set on A. baumannii MDR ACB (setting [19]) it was 16 μg/mL Drug Base; in the data set with A. baumannii MDR ACB (MH broth, mucin 0%), 0.5 μg/mL Drug Base. For the same substance, the “time at which 1 mg/mL in the OC was reached” value in data set [3] stood at 2.83 h. Further, the “concentration required for growth inhibition (up to >48 h)” value in the data set with P. aeruginosa MDR 301 [4] was at least 8 × MIC. Also, in the data set on A. baumannii 7789 [6], the “reduction in viable bacterial counts after 4 h” value is recorded as under 3 log10 CFU/mL. The “increase in MIC values when mucin was added to the bacterial culture medium” value in [7] was over 100 fold. The “biofilm biomass compared to untreated control” value with P. aeruginosa R22 [8] (2 × MIC (colistin sulphate up to 2 × MIC), n = 15) was “no significant change”. Also, the biofilm roughness entry in the data set on P. aeruginosa R22 [8] (conjugates ≥MIC, colistin sulphate MIC, n = 15, p < 0.05) was “significantly increased”.

For the substance colistimethate sodium, in [9], the “plasma colistin concentration at steady-state” value is 0.5 to 4 µg/mL.
